A short description of series [1]: Mice plasma concentration after oral dose. It counts as in vivo. The settings on record: 30 min to 4 h after single or repeat oral dose of 30 mg/kg.
Series [2] in a line: Toxicity, visual observations in mice. The settings on record: 30 mg/kg; duration and visual observations.
In series [3] the test system is metal ions in retinal drusen. The series is described as follows: Post mortem retina screening, ZP1 zinc labeling of Bruch membrane. The settings on record: 15 hours incubation; TPEN 100 μM, PB-1033 100 and 250 μM; 10 μM ZP1. As to the method:
Post Mortem Screening The BAS assay is adopted for post mortem retina. Using a trephine, 6 mm diameter regions of peripheral retina from frozen donor eyes are dissected. Following defrosting, the neuronal retina and the RPE cells are removed by gentle agitation in PBS buffer. Following removal of the RPE cells, strips of the Bruch membrane are cut from the eye. 4 samples are prepared: 1) Control […] Samples are then washed 3 times and the labeling visualized using a fluorescence and confocal microscope. A repeat of this procedure is performed with the exception that samples are incubated for a period of 15 hours before washing to determine differential metal binding over this longer period. The test results are in the form of fluorescence imaging from a confocal microscope of the 4 samples tested in this Example after 15 hours of sample incubation. […] Fluorescence microscopic photographs (which are in colour) are available upon request from the […].

Series [4] has as its target T1, Abeta:Zn (25:50 μM) Synthetic Aggregations (Homo sapiens, UniProt P05067).
T1 construct: PB Compound Mediated Dissolution of Aggregated Abeta 1-42; purchased Keck Laboratory, Yale University School of Medicine
Briefly: Disaggregation of Abeta:Zn synthetic aggregates (ThT fluorescence). The format is biochemical. In outline:
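ThT signal (excitation 450 nm, emission 480 nm) measured after compounds at final 1, 5, 10, 25 and 50 μM acted 2 h at 37 degrees on preformed aggregates. Those aggregates came from 24 h rotating incubation of 25 μM Abeta1-42, 50 μM ZnCl2 and 50 μM ThT in PBS pH 6.6.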

As a reminder, the EC50 is the concentration at which the effect is half-maximal.

Structures are written as SMILES.

T1 sequence (P05067 672-713 limits assumed): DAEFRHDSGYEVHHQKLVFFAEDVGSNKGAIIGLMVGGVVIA

For the compound `CN(C)Cc1ccc2c(Cl)cc(Cl)c(O)c2n1.Cl` [PB 1033], the Mice plasma concentration result in series [1] was “Up to 500 ng/ml ng/mL”. In addition, the “Toxicity at 30 mg/kg” value in series [2] is listed as 10 days, none. Further, the “ZP1 (zinc sensor) labeling of post mortem Bruch membrane” value in series [3] is recorded as “inhibited ZP1 labeling”. In addition, the “Disaggregation % Aggregate reduction at 5 μM” value in series [4] (5 μM test compound) amounted to 33.2%. The compound further returned an EC50 in series [4] (Abeta:Zn 25:50 μM aggregates) of 18.6 µM.

For the origin of these results see patent publication US9163018B2, “Method of treatment of age-related macular degeneration (AMD)” (Prana Biotechnology Limited, priority 2006, dated 2015).
